The assay addresses T1, KCNT1 (KNa1.1, Slack) (Homo sapiens, UniProt Q5JUK3).
T1 construct: expressed in transfected cells; host or cells: HEK-TREX (tetracycline inducible cell line)
T1 sequence (Q5JUK3 1-1230): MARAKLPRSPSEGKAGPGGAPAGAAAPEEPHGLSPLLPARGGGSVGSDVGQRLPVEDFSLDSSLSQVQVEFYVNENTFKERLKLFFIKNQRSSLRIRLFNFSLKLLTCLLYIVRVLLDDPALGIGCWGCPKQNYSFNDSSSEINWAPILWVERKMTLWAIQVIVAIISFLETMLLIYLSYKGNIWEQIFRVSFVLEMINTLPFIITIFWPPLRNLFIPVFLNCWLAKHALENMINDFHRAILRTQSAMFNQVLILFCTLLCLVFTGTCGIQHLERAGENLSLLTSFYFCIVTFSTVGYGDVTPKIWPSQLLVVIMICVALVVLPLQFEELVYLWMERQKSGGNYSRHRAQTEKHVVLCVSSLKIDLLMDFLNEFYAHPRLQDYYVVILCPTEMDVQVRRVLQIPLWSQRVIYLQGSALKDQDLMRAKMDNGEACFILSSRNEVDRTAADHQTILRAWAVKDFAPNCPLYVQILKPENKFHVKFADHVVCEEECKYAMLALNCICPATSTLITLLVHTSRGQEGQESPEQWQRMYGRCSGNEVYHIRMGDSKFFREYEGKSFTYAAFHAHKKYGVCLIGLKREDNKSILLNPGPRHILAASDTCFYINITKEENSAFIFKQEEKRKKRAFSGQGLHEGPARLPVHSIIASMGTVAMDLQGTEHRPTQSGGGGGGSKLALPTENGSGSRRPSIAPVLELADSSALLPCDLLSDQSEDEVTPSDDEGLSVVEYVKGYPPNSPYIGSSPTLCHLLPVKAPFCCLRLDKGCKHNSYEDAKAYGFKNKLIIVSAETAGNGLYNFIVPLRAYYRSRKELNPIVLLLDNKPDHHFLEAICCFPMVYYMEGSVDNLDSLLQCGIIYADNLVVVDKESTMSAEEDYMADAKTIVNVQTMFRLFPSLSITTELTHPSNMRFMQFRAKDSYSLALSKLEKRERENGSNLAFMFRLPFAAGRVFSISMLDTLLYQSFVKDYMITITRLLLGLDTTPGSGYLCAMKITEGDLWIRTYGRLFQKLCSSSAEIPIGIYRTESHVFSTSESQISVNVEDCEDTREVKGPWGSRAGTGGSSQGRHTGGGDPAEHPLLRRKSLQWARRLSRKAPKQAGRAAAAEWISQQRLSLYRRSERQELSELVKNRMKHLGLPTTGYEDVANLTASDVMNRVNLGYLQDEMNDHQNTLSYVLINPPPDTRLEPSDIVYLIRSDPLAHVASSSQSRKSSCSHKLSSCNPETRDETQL
In words: KCNT1-WT-Basal-Patch Clamp Assay. The assay is classed as cell-based. Conditions: tetracycline inducible cell line (HEK-TREX), SyncroPatch 384PE automated patch clamp, perforated patch, holding -80 mV with step to 0 mV, room temperature. The method, then: KCNT1-WT-Basal-Patch Clamp Assay
Inhibition of KCNT1 (KNa1.1, Slack) was evaluated using a tetracycline inducible cell line (HEK-TREX). Currents were recorded using the SyncroPatch 384PE automated, patch clamp system. Pulse generation and data collection were performed with PatchController384 V1.3.0 and DataController384 V1.2.1 (Nanion Technologies). The access resistance and apparent membrane capacitance were estimated using built-in protocols. Current were recorded in perforated patch mode (10 μM escin) from a population of cells. The cells were lifted, triturated, and resuspended at 800,000 cells/ml. The cells were allowed to recover in the cell hotel prior to experimentation. Currents were recorded at room temperature. The external solution contained the following (in mM): NaCl 105, NMDG 40, KCl 4, MgCl2 1, CaCl2 5 and HEPES 10 (pH=7.4, Osmolarity ˜300 mOsm). The extracellular solution was used as the wash, reference and compound delivery solution. The internal solution contained the following (in mM): NaCl 70, KF 70, KCl 10, EGTA 5, HEPES 5 and Escin 0.01 (pH=7.2, Osmolarity ˜295 mOsm). Escin is made at a 5 mM stock in water, aliquoted, and stored at −20° C. The compound plate was created at 2× concentrated in the extracellular solution. The compound was diluted to 1:2 when added to the recording well. The amount of DMSO in the extracellular solution was held constant at the level used for the highest tested concentration. A holding potential of −80 mV with a 100 ms step to 0 mV was used. Mean current was measured during the step to 0 mV. […] The average mean current from 3 sweeps was calculated and the % inhibition of each compound was calculated. The % Inhibition as a function of the compound concentration was fit with a Hill equation to derive IC50, slope, min and max parameters. If KCNT1 inhibition was less than 50% at the highest tested concentration or if an IC50 could not be calculated, then a percent inhibition was reported in place of the IC50. In this table, “A” indicates IC50 of less than or equal to 1 μM; “B” indicates inhibition of between 1 μM to 20 μM; and “C” indicates inhibition of greater than or equal to 20 μM.
A general note: The patch-clamp technique gives a direct electrical read-out from membranes.

The results in this text go back to patent publication US20240368142A1, “KCNT1 INHIBITORS AND METHODS OF USE” (Praxis Precision Medicines, Inc., priority 2021, published 2024).

Bounds are passed on as bounds.

For the compound `C[C@@H](C(=O)NC1CCCCC1)c1nc(-c2ccnc(C3CC3)c2)no1` (single isomer, unassigned) [Compound 3], the IC50 (commonly the concentration at which inhibition is half-maximal) was no more than 1000 nM.
For `C[C@H](C(=O)NC1CCCCC1)c1nc(-c2ccnc(C3CC3)c2)no1` (single isomer, unassigned) [Compound 4], the half-maximal inhibitory concentration (IC50) is no more than 1000 nM.
The figure for `C[C@@H](C(=O)N1CCCCC1)c1nc(-c2ccnc(C3CC3)c2)no1` (single isomer, unassigned) [Compound 6] is 1000 to 20000 nM; for `C[C@H](C(=O)N1CCCCC1)c1nc(-c2ccnc(C3CC3)c2)no1` (single isomer, unassigned) [Compound 7] it is no less than 20000 nM; for `C[C@@H](C(=O)Nc1ccccc1)c1nc(-c2ccnc(C3CC3)c2)no1` (single isomer, unassigned) [Compound 8] it is no more than 1000 nM.
`C[C@H](C(=O)Nc1ccccc1)c1nc(-c2ccnc(C3CC3)c2)no1` (single isomer, unassigned) [Compound 9] yielded a half-inhibitory concentration (IC50) of no more than 1000 nM.
The result for `CC(C(=O)Nc1ccccc1)c1nc(-c2ccnc(C3CC3)c2)no1` (stereo not drawn) [Compound 1, 2-[3-(2-cyclopropyl-4-pyridyl)-1,2,4-oxadiazol-5-yl]-N-phenyl-propanamide] reads no more than 1000 nM.
The result for `CC(C(=O)NCc1ccccc1)c1nc(-c2ccnc(C3CC3)c2)no1` (stereo not drawn) [Compound 2, N-benzyl-2-(3-(2-cyclopropylpyridin-4-yl)-1,2,4-oxadiazol-5-yl)propanamide] reads no more than 1000 nM; that for `CC(C(=O)N1CCCCC1)c1nc(-c2ccnc(C3CC3)c2)no1` (stereo not drawn) [Compound 5, 2-(3-(2-cyclopropylpyridin-4-yl)-1,2,4-oxadiazol-5-yl)-1-(piperidin-1-yl)propan-1-one], 1000 to 20000 nM; that for `CC(C(=O)N(C)c1ccccc1)c1nc(-c2ccnc(C3CC3)c2)no1` (stereo not drawn) [Compound 10, -[3-(2-cyclopropyl-4-pyridyl)-1,2,4-oxadiazol-5-yl]-N-methyl-N-phenyl-propanamide], 1000 to 20000 nM.
The result for `CC(C(=O)N[C@@H](C)c1ccccc1)c1nc(-c2ccnc(C3CC3)c2)no1` (stereo partly drawn) [Compound 11, 2-(3-(2-cyclopropylpyridin-4-yl)-1,2,4-oxadiazol-5-yl)-N—((S)-1-phenylethyl)propanamide] reads no more than 1000 nM; that for `CC(C(=O)N[C@H](C)c1ccccc1)c1nc(-c2ccnc(C3CC3)c2)no1` (stereo partly drawn) [Compound 12, 2-(3-(2-cyclopropylpyridin-4-yl)-1,2,4-oxadiazol-5-yl)-N—((R)-1-phenylethyl)propanamide], no more than 1000 nM.
